The source of these data is paper PMC8778022, “Synthesis and Biological Activity of 3-(Heteroaryl)quinolin-2(1H)-ones Bis-Heterocycles as Potential Inhibitors of the Protein Folding Machinery Hsp90” (Molecules, 2022).

Read-outs that look alike come from different tables or passages of the source.

Data set [1] can be described thus: MTS cell viability assay, MRC-5 cells, 72 h. Type of data set: cell-based, human. The following applies: human, MRC-5 fetal lung fibroblast cells, % of viable cells compared to untreated cells 100%. As to the method:
(§1) Upon completion of their syntheses, the in vitro activity of quinolone derivatives 3a–f, 4a–h, and 5a,b was evaluated by their growth-inhibitory potency in three cancer cell lines. At first, the viability of the synthesized compounds was examined with the MDA-MB-231 […] breast cancer cell line at concentrations of 10 µM, 15 µM, and 25 µM. Prostate cancer PC-3 cells and human fetal lung fibroblast MRC-5 cell lines were also subjected to this series of compounds at a unique concentration of 15 µM.
(§2) MDA-MB-231 cells were grown in L15 supplemented with 15% serum, 2 mM glutamine, and 22 mM sodium bicarbonate in the presence of Penicillin/Streptomycin antibiotic mixture. PC-3 cells were cultured in RPMI 1640 supplemented with 10% serum and 2 mM glutamine in the presence of Penicillin/Streptomycin antibiotic mixture. MRC-5 cells were cultured in EMEM supplemented with 10% serum and 2 mM glutamine in the presence of Penicillin/Streptomycin antibiotic mixture (Reagents were purchased from Sigma Aldrich, Saint-Quentin-Fallavier, France).
(§3) Cells were treated for 72 h with 10, 15, and 25 µM of the selected substances. Control cells were treated with the equivalent in DMSO.
(§4) Cell survival was assessed using the CellTiter Aqueous One Proliferation assay (Promega, Charbonnières-les-Bains, France) whereby 2500 or 5000 cells per well were seeded in 96-well plates in 100 µL. At the end of the treatment, 20 µL of reagent was added, and absorbance readings were taken at 492 nm on a 96-well plate reader after 3 h of contact (on average).
(In general: Formazan colour is commonly taken as a measure of viable cells.)

For a further data set, the system named is MDA-MB-231 cells. The data set can be described thus: MTS cell viability assay, MDA-MB-231 cells, 72 h. The conditions noted are these: % of viable cells compared to untreated cells 100%; for viability at 25 µM / viability at 10 µM / viability at 15 µM: Homo sapiens, MDA-MB-231, 72 h. In kind it is cell-based, human. On the procedure: as §1, §2, §3, §4

The subject of another data set is colon carcinoma cells. The arrangement: method as in PMID 34952432. The conditions noted are these: cited from earlier work.
The next data set concerns PC3. The conditions noted are these: earlier studies on mode of action; cited from earlier work.
The subject of the next data set is PC-3 cells. The data set can be described thus: MTS cell viability / growth inhibition assay, PC-3 cells, 72 h. Type of data set: cell-based, human. On the procedure:
as §1
Then, the growth inhibitory activities against PC-3 prostate cancer cell line were measured for the selected 3-heteroaryl-quinolin-2(1H)-one derivatives 3a–e.
as §2, §3, §4

Data set [2] has as its system MCF-7 breast cancer cell line. The following applies: earlier studies on mode of action; cited from earlier work.
The subject of the next data set is MCF7. The following applies: Figure 1; cited from earlier work.
Data set [3] deals with Hsp90 client proteins (HER2, Raf-1 and cdk-4). The following applies: earlier studies on mode of action; cited from earlier work.
In the next data set the test system is SkBr3 cell lines. The conditions noted are these: cited from earlier work.
Data set [4] relates to human fetal lung fibroblast MRC-5. The data set can be described thus: MTS cell viability assay, MRC-5 cells, 72 h. Type of data set: cell-based. The following applies: % of viable cells compared to untreated cells 100%. On the procedure: as §1, §2, §3, §4

By melting point is commonly meant the temperature, or range, at which the solid turns liquid. As usually defined, the viability is a read-out of living cells in per cent, often relative to untreated cells. Usually GI50 stands for the concentration that inhibits growth by half. One may read the IC50 as the concentration that gives 50% inhibition.

For `Cn1c(=O)c(-c2nc3c(-c4ccc(Cl)cc4)ncnc3n2Cc2ccccc2)cc2ccccc21` [4g, 3-[9-benzyl-6-(4-chlorophenyl)-9H-purin-8-yl]-1-methylquinolin-2(1H)-one], the melting point was in the range of 202 to 203 °C. In data set [1], this molecule had a viability at 72 h, 15 µM of 71 to 79%. In addition, in the data set with MDA-MB-231 cells (25 µM), the viability at 25 µM is about 30%.
Turning to `Cn1c(=O)c(NC(=O)c2ccc(OCCCCCCCCCC[P+](c3ccccc3)(c3ccccc3)c3ccccc3)cc2)cc2cc(Br)ccc21.[Br-]` [6BrCaQ-C10-TPP], in the data set with colon carcinoma cells, the mitochondrial membrane disruption entry is “significant mitochondrial membrane disruption”.
For `COc1ccc(C(=O)Nc2cc3cc(Br)ccc3n(C)c2=O)cc1` [6BrCaQ], the apoptosis level entry (with PC3; in data set [2]) was “high apoptosis level” throughout. Also, in the data set with PC-3 cells (Homo sapiens, PC-3, concentration needed to reduce cell growth by 50%, 72 h treatment, estimated, read-out: GI50 anti-proliferative effect PC-3), the GI50 was 10 µM. The IC50 in the data set with MCF7 was 7 µM. Further, the “Hsp90 client proteins (HER2, Raf-1 and cdk-4)” value in data set [3] is “downregulation”.
For the molecule `CN1CCC(Oc2ccc3cc(-c4cc5ccccc5s4)c(=O)oc3c2)CC1` [(I)], the IC50 in the data set with SkBr3 cell lines (cell death, SkBr3) was 980 nM.
As for `Cc1cc(C)cc(-c2ncnc3c2nc(-c2cc4ccccc4n(C)c2=O)n3Cc2ccccc2)c1` [C00011], in the data set with PC-3 cells (15 µM, 72 h, MTS, % of viable cells compared to untreated cells 100%), the “Cell viability [%] PC-3 (15 µM)” value is 56%. Besides, in data set [4], the “Cell viability [%] MRC-5 (15 µM)” value stood at 71%. Further, in the data set with MDA-MB-231 cells, the viability at 10 µM is 57% and the viability at 15 µM stood at 62%. For the same molecule, the viability at 25 µM with MDA-MB-231 cells (25 µM) was determined as 50%.
As for `Cn1c(=O)c(-c2nc3c(-c4ccc(Cl)cc4)ncnc3n2Cc2ccccc2)cc2ccccc21` [C00013], the viability at 15 µM in the data set with PC-3 cells (Homo sapiens, PC-3, 72 h, 15 µM, 72 h, MTS, % of viable cells compared to untreated cells 100%) was 91%. Moreover, the “Cell viability [%] MRC-5 (15 µM)” value in data set [4] came out at 79%. Also, the “Cell viability [%] MDA-MB-231” value with MDA-MB-231 cells (25 µM) is listed as 27%. Besides, in the data set on MDA-MB-231 cells, the viability at 10 µM was found to be 56% and the viability at 15 µM stood at 57%.
As to `CO[C@@H]1[C@@H](OC(N)=O)[C@@H](O)[C@H](Oc2ccc3c(O)c(NC(=O)c4ccc(O)c(CC=C(C)C)c4)c(=O)oc3c2C)OC1(C)C` [Novobiocin, novobiocin], the IC50 in the data set with MCF7 is 260 µM.
For the molecule `CC(C)NCCCn1c(Sc2cc3c(cc2I)OCO3)nc2c(N)ncnc21` [PU-H], in the data set on SkBr3 cell lines (Figure 1), the IC50 is 50 to 90 nM.
